Consider 38 molecules from patent publication US20250152574A1 (BIOGEN MA INC., priority 2022, published 2025).

What is called IC50 is the concentration at which inhibition is half-maximal.

For this assay, the target named is T1, EBP (Homo sapiens, UniProt Q15125).
T1 construct: HEK293T cells were utilized as the source of EBP enzyme; endogenous in cells; host or cells: HEK293T
T1 sequence (Q15125 whole entry): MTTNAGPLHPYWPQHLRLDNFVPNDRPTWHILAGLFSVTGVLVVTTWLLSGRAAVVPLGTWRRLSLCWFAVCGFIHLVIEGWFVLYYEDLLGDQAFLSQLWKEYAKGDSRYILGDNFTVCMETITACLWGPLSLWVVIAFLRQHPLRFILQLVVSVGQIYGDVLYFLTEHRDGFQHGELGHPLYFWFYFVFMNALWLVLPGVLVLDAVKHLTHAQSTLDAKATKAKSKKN
The assay is described as follows: EBP Functional Assay (EBP immunoaffinity LC-MS assay). The format is biochemical. Particulars: HEK293T cells as source of EBP enzyme; substrate zymosterol-d5, 37° C. for 4 h; percent conversion to dehydrolathosterol-d5 by LC-APCI MRM MS. As to the method:
The EBP immunoaffinity (IA) LC-MS assay measures the potency of small molecule inhibitors of EBP by quantifying their concentration-dependent changes in the enzyme's substrate and product using liquid chromatography atmospheric pressure chemical ionization multiple reaction monitoring mass spectrometry (LC-APCI MRM MS). HEK293T cells were utilized as the source of EBP enzyme. The enzyme was incubated with the small molecule inhibitors at variable concentrations for 30 min. Deuterated form of EBP substrate, zymosterol-d5 (Avanti Polar Lipids, Cat #700068P-1 mg), was then added and the plate was incubated at 37° C. for 4 h. Finally, the sterol isomers were extracted and injected to LC-APCI MRM MS. MRM transition used for the quantification for both zymosterol and […] (substrate and product of EBP enzymatic reaction, respectively) is 372.3-203.2, CE 30 and DP 80 in positive ion mode. Percent conversion of the zymosterol-d5 to dehydrolathosterol-d5 was used to derive IC50 curves. Tasin-1 (1′-[(4-Methoxyphenyl)sulfonyl]-4-methyl-1,4′-bipiperidine, CAS 792927-06-1) was used as the reference small molecule inhibitor.
Percent conversion versus the compound concentration data were fit to the following 4-parameter logistic model to generate IC50 curves: […]
`N#Cc1cc(F)cc(S(=O)(=O)N2CCC3(CCC(N4CC5(COC5)C4)C3)CC2)c1` (centres unmarked) [Example 13] came in with an IC50 of 100 to 250 nM.

`N#Cc1cc(F)cc(S(=O)(=O)N2CCC3(CC2)CC(N2CC4(COC4)C2)C3)c1` [Example 96, 3-((2-(2-oxa-6-azaspiro[3.3]heptan-6-yl)-7-azaspiro[3.5]nonan-7-yl)sulfonyl)-5-fluorobenzonitrile] displayed an IC50 of 250 to 1500 nM.

The molecule `N#Cc1ccc(F)c(S(=O)(=O)N2CCC3(CC2)CC(N2C[C@H]4C[C@@H]2CO4)CO3)c1` (stereo partly drawn) [Example 45, 3-((3-((1R,4R)-2-oxa-5-azabicyclo[2.2.1]heptan-5-yl)-1-oxa-8-azaspiro[4.5]decan-8-yl)sulfonyl)-4-fluorobenzonitrile] had an IC50 of 250 to 1500 nM.

For the molecule `Cc1nc(C(F)(F)F)ccc1S(=O)(=O)N1CCC2(CC1)CC(NC1CC3(COC3)C1)CO2` (centres unmarked) [Example 137, 8-((2-methyl-6-(trifluoromethyl)pyridin-3-yl)sulfonyl)-N-(2-oxaspiro[3.3]heptan-6-yl)-1-oxa-8-azaspiro[4.5]decan-3-amine], the IC50 was in the range of 250 to 1500 nM. In the case of `COc1cc(S(=O)(=O)N2CCC3(CC2)CC(N2CC4(COC4)C2)CO3)c(F)cn1` (centres unmarked) [Example 115], the IC50 is 250 to 1500 nM. On to `COC1CN(C2COC3(CCN(S(=O)(=O)c4cc(C5CC5)nn4C)CC3)C2)C1` (centres unmarked) [Example 58, 8-((3-Cyclopropyl-1-methyl-1H-pyrazol-5-yl)sulfonyl)-3-(3-methoxyazetidin-1-yl)-1-oxa-8-azaspiro[4.5]decane], for which the IC50 is 250 to 1500 nM. For the molecule `COc1ccc(S(=O)(=O)N2CCC3(CCC(N4CC5(COC5)C4)C3)CC2)cn1` (centres unmarked) [Example 110], the IC50 fell in the range of 100 to 250 nM. `Cc1ccc(F)c(S(=O)(=O)N2CCC3(CC2)CC(N2CCOCC2)CO3)c1` (centres unmarked) [Example 18, 8-((2-Fluoro-5-methylphenyl)sulfonyl)-3-morpholino-1-oxa-8-azaspiro[4.5]decane] had an IC50 of 100 to 250 nM. The molecule `N#Cc1ccc(S(=O)(=O)N2CCC3(CC2)CC(N2CC4(COC4)C2)CO3)c(Cl)c1` (centres unmarked) [Example 9] displayed an IC50 of 250 to 1500 nM. The value for `Cc1cc(S(=O)(=O)N2CCC3(CC2)CC(N2CCC4(CCOC4)C2)CO3)n(C)n1` (centres unmarked) [Example 29, 8-((1,3-Dimethyl-1H-pyrazol-5-yl)sulfonyl)-3-(2-oxa-7-azaspiro[4.4]nonan-7-yl)-1-oxa-8-azaspiro[4.5]decane] was 250 to 1500 nM; that for `Cc1cc(S(=O)(=O)N2CCC3(CC[C@H](N4CC5(COC5)C4)C3)CC2)n(C)n1` (single isomer, unassigned) [Example 68b] was 100 to 250 nM; that for `Cc1cc(S(=O)(=O)N2CCC3(CC2)C[C@H](N2CC[C@@]4(CCOC4)C2)CO3)n(C)n1` (single isomer, unassigned) [Example 72a] was 100 to 250 nM. The value for `COc1ncc(Cl)cc1S(=O)(=O)N1CCC2(CC1)C[C@@H](N1CC3(COC3)C1)CO2` (single isomer, unassigned) [Example 63a] was < 100 nM; that for `N#Cc1ccc(F)c(S(=O)(=O)N2CCC3(CC2)CC(N2CC4(COC4)C2)CO3)c1` (centres unmarked) [Example 46, 3-((3-(2-Oxa-6-azaspiro[3.3]heptan-6-yl)-1-oxa-8-azaspiro[4.5]decan-8-yl)sulfonyl)-4-fluorobenzonitrile] was 250 to 1500 nM. The value for `Cc1cc(S(=O)(=O)N2CCC3(CC[C@@H](N4CCOCC4)C3)CC2)n(C)n1` (single isomer, unassigned) [Example 22a] was 250 to 1500 nM. For the molecule `COCCN(C)C1COC2(CCN(S(=O)(=O)c3cc(C4CC4)nn3C)CC2)C1` (centres unmarked) [Example 60, 8-((3-Cyclopropyl-1-methyl-1H-pyrazol-5-yl)sulfonyl)-N-(2-methoxyethyl)-N-methyl-1-oxa-8-azaspiro[4.5]decan-3-amine], the IC50 is 250 to 1500 nM. The value for `N#Cc1ccc(F)c(S(=O)(=O)N2CCC3(CC2)CC(N2CCCCC2)CO3)c1` (centres unmarked) [Example 47, 4-Fluoro-3-((3-(piperidin-1-yl)-1-oxa-8-azaspiro[4.5]decan-8-yl)sulfonyl)benzonitrile] was 100 to 250 nM; that for `COCCN(C)C1CCC2(CCN(S(=O)(=O)c3ccc(OC)nc3C)CC2)C1` (centres unmarked) [Example 100, 8-((6-methoxy-2-methylpyridin-3-yl)sulfonyl)-N-(2-methoxyethyl)-N-methyl-8-azaspiro[4.5]decan-2-amine] was < 100 nM; that for `N#Cc1cc(S(=O)(=O)N2CCC3(CCC(N4CC5(COC5)C4)C3)CC2)ccc1F` (centres unmarked) [Example 127, 5-((2-(2-oxa-6-azaspiro[3.3]heptan-6-yl)-8-azaspiro[4.5]decan-8-yl)sulfonyl)-2-fluorobenzonitrile] was 250 to 1500 nM. As for `Cc1nc(C(F)(F)F)ccc1S(=O)(=O)N1CCC2(CC1)CC(NC1CCOCC1)CO2` (centres unmarked) [Example 138, 8-((2-methyl-6-(trifluoromethyl)pyridin-3-yl)sulfonyl)-N-(tetrahydro-2H-pyran-4-yl)-1-oxa-8-azaspiro[4.5]decan-3-amine], the IC50 lay within 250 to 1500 nM. Turning to `[2H]C([2H])([2H])N(CCOC)C1COC2(CCN(S(=O)(=O)c3cc(C)cnc3OC)CC2)C1` (centres unmarked) [Example 66, 8-((2-Methoxy-5-methylpyridin-3-yl)sulfonyl)-N-(2-methoxyethyl)-N-(methyl-d3)-1-oxa-8-azaspiro[4.5]decan-3-amine], the IC50 was in the range of 250 to 1500 nM. In the case of `O=S(=O)(c1ccc2c(c1)OCCO2)N1CCC2(CCC(N3CC4(COC4)C3)C2)CC1` (centres unmarked) [Example 107], the IC50 is < 100 nM.

In turn, `CC1(O)CCN([C@@H]2COC3(CCN(S(=O)(=O)c4cc(C#N)ccc4F)CC3)C2)CC1` (single isomer, unassigned) [Example 141] had an IC50 of 250 to 1500 nM.

As to `Cn1nc(C2CC2)cc1S(=O)(=O)N1CCC2(CC1)C[C@H](N1CC3(COC3)C1)CO2` (single isomer, unassigned) [Example 57b], the IC50 is 250 to 1500 nM. For the molecule `COc1ccc(S(=O)(=O)N2CCC3(CCC(N4CC(O)C4)C3)CC2)c(C)n1` (centres unmarked) [Example 99, 1-(8-((6-methoxy-2-methylpyridin-3-yl)sulfonyl)-8-azaspiro[4.5]decan-2-yl)azetidin-3-ol], the IC50 was < 100 nM. The value for `COC1CN(C2COC3(CCN(S(=O)(=O)c4cnc(C5CC5)s4)CC3)C2)C1` (centres unmarked) [Example 55, 8-((2-Cyclopropylthiazol-5-yl)sulfonyl)-3-(3-methoxyazetidin-1-yl)-1-oxa-8-azaspiro[4.5]decane] was 250 to 1500 nM. The value for `O=S(=O)(c1ccc(F)cc1)N1CCC2(CC1)CC(N1CC3(COC3)C1)CO2` (centres unmarked) [Example 8] was 250 to 1500 nM. `CC(C)Oc1ccc(S(=O)(=O)N2CCC3(CCC(N4CC5(COC5)C4)C3)CC2)cn1` (centres unmarked) [Example 130, 6-(8-((6-isopropoxypyridin-3-yl)sulfonyl)-8-azaspiro[4.5]decan-2-yl)-2-oxa-6-azaspiro[3.3]heptane] gave an IC50 of 100 to 250 nM. In turn, `O=S(=O)(c1ccc2cccnc2c1)N1CCC2(CCC(N3CC4(COC4)C3)C2)CC1` (centres unmarked) [Example 144, 6-(8-(quinolin-7-ylsulfonyl)-8-azaspiro[4.5]decan-2-yl)-2-oxa-6-azaspiro[3.3]heptane] displayed an IC50 of 100 to 250 nM.

Regarding `Cc1occc1S(=O)(=O)N1CCC2(CCC(N3CC4(COC4)C3)C2)CC1` (centres unmarked) [Example 105], the concentration for half-maximal inhibition (IC50) lay in the range of 250 to 1500 nM. Molecule `O=S(=O)(c1ccc(OC(F)F)cc1)N1CCC2(CCC(N3C[C@@H]4C[C@H]3CO4)C2)CC1` (stereo partly drawn) [Example 89, (1S,4S)-5-(8-((4-(difluoromethoxy)phenyl)sulfonyl)-8-azaspiro[4.5]decan-2-yl)-2-oxa-5-azabicyclo[2.2.1]heptane] returned an IC50 of 100 to 250 nM. As to `Cn1nc(C(F)F)cc1S(=O)(=O)N1CCC2(CCC(N3CC4(COC4)C3)C2)CC1` (centres unmarked) [Example 125, 6-(8-((3-(difluoromethyl)-1-methyl-1H-pyrazol-5-yl)sulfonyl)-8-azaspiro[4.5]decan-2-yl)-2-oxa-6-azaspiro[3.3]heptane], the IC50 was < 100 nM. In the case of `Cn1nc(C2CC2)cc1S(=O)(=O)N1CCC2(CC1)C[C@@H](N1CC3(COC3)C1)CO2` (single isomer, unassigned) [Example 57a], the IC50 is 250 to 1500 nM. Turning to `COCCNC1COC2(CCN(S(=O)(=O)c3cc(C4CC4)nn3C)CC2)C1` (centres unmarked) [Example 59, 8-((3-Cyclopropyl-1-methyl-1H-pyrazol-5-yl)sulfonyl)-N-(2-methoxyethyl)-1-oxa-8-azaspiro[4.5]decan-3-amine], the IC50 was 250 to 1500 nM. `Cc1cc(S(=O)(=O)N2CCC3(CCC(N4CCOCC4)C3)CC2)n(C)n1` (centres unmarked) [Example 21, 4-(8-((1,3-Dimethyl-1H-pyrazol-5-yl)sulfonyl)-8-azaspiro[4.5]decan-2-yl)morpholine] registered an IC50 of 100 to 250 nM. Molecule `COc1ncc(C)cc1S(=O)(=O)N1CCC2(CC1)CC(N1CC3(COC3)C1)C2` [Example 93, 6-(7-((2-methoxy-5-methylpyridin-3-yl)sulfonyl)-7-azaspiro[3.5]nonan-2-yl)-2-oxa-6-azaspiro[3.3]heptane] registered a 50% inhibitory concentration (IC50) of 100 to 250 nM. As for `Cc1cc(OC(F)(F)F)ccc1S(=O)(=O)N1CCC2(CC1)CC(N1CCOCC1)CO2` (centres unmarked) [Example 54, 8-((2-Methyl-4-(trifluoromethoxy)phenyl)sulfonyl)-3-morpholino-1-oxa-8-azaspiro[4.5]decane], the IC50 was in the range of 250 to 1500 nM.

On to `O=S(=O)(c1ccc(OC(F)(F)F)cn1)N1CCC2(CCC(N3CC4(COC4)C3)C2)CC1` (centres unmarked) [Example 114], for which the IC50 lay within 250 to 1500 nM.
